This is an account of results in patent US20110129932A1, “Lipoprotein Assay” (L3 TECHNOLOGY LIMITED, priority 2006, published 2011).

Data set [1] concerns the target T1, Human Serum Albumin (HSA) (Homo sapiens, UniProt P02768). In words: K-37 fluorescence bound to HSA with and without octanoate (Example 4). Format: binding. The protocol: (§1) The dye K-37 was added at a concentration of 0.5 mM to LDL at a total lipid concentration of 5 mM, in the presence and absence of 50 mg/ml HSA. Measurements were made with and without the addition of 0.1 M sodium octanoate, which acted as a ligand binding inhibitor.

Data set [2] concerns the target T1, Human Serum Albumin (HSA). In words: Nile Red fluorescence bound to HSA with and without octanoate (Example 5). Format: binding. The protocol:
as §1
Following the findings described in Example 4, concerning the addition of octanoate to block the hydrophobic binding sites of HSA, the inventors then observed that Nile Red also binds to HSA and fluoresces. This additional fluorescence of Nile Red when bound to HSA also causes a substantial background signal, which distorts and thereby causes significant errors in the measurement of HDL. They therefore decided to block the hydrophobic binding sites in HSA with the same ligand binding inhibitor as for K-37 blocking, i.e. sodium octanoate. The experiments conducted with Nile Red and HSA, were based on those discussed in Example 4, and all using 0.5 mM Nile Red.

Data set [3] deals with drug binding domain of HSA (Homo sapiens, UniProt P02768). In words: Blocking the drug binding domain of HSA in the HDL/Nile red assay. From the text: This led the inventors to realise that the HDL/Nile red assay may be improved further by using an additional blocker. They tried agents that block the drug binding domain of HSA. […] The benzoic acid has the added bonus of quenching the Nile Red residual fluorescence in solution by about 20%.

The nature of data set [4]: Excitation and emission maxima of the dyes. Format: physicochemical.

T1 sequence (P02768 25-609): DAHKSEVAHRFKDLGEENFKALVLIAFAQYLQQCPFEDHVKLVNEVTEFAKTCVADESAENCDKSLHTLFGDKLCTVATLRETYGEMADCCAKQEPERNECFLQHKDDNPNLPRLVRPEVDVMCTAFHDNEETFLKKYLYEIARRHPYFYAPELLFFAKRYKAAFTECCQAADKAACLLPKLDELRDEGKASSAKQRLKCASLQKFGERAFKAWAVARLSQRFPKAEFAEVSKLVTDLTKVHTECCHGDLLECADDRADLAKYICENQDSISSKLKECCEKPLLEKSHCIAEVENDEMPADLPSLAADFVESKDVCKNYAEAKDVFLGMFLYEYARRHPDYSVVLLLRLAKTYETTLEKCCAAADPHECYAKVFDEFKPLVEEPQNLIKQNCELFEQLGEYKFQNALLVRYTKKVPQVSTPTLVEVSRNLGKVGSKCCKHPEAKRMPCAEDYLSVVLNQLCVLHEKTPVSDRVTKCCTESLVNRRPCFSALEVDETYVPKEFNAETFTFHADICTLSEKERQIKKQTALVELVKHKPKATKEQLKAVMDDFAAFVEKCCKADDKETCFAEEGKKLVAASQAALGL
drug binding domain of HSA, sequence (P02768 25-609): as above

As for `CN(C)c1ccc(/C=C/C(=O)c2ccc(S(=O)(=O)C(F)F)cc2)cc1` [K-37, 4-dimethylamino-4′-difluoromethyl-sulphonyl-benzylidene-acetophenone], the “Fluorescence Intensity” value in data set [1] (0.5 mM K-37 plus 50 mg/ml HSA) came out at 79300 units; in data set [1] (0.5 mM K-37 plus 50 mg/ml HSA + 0.1 M sodium octanoate), 3600 units.

Regarding `CCN(CC)c1ccc2nc3c4ccccc4c(=O)cc-3oc2c1` [Nile Red], the “Fluorescence Intensity” value in data set [2] (0.5 mM Nile Red plus 50 mg/ml HSA) came to 58.905 units; in data set [2] (0.5 mM Nile Red plus 50 mg/ml HSA + 50 mM octanoate), 9.118 units.

`O=C(O)c1ccccc1` [benzoic acid]: the “quenching of the Nile Red residual fluorescence in solution” value in data set [3] is “about 20%”. Moreover, the “displacement of Nile Red from HSA” value in data set [3] (at about 5 mM, without affecting the lipoprotein fluorescence) is listed as “worked to displace the Nile Red from HSA”.

Take `c1cc2ccc3cccc4ccc(c1)c2c34` [pyrene]: the excitation maximum in data set [4] turned out to be 320 nm.
